Assay results published in patent publication US9133183B2, “Imidazolidinones and analogs exhibiting anti-cancer and anti-proliferative activities” (Deciphera Pharmaceuticals, LLC, priority 2013, dated 2015).

Legend:
[1] = target: unphosphorylated c-KIT kinase (uKIT, Seq. ID no. 2) (Homo sapiens (Human), UniProt P10721); assay: uKit kinase assay (coupled pyruvate kinase/lactate dehydrogenase); type: biochemical; conditions: enzymatic assay, ATP 2000 μM
How it was run: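 The read-out was a continuous PK/LDH-coupled decrease in NADH absorbance at 340 nm, monitored at 30 °C over 4 h. IC50 came from % inhibition based on rates at 3–4 h. The GST-tagged unphosphorylated KIT (12 nM) was used with polyE4Y substrate, 2000 μM ATP and 10 mM Mg2+ at pH 7.5, with serially diluted compound.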

[2] = system: c-FMS; assay: cFOS mRNA production in a c-FMS mouse spleen pharmacodynamic model; type: in vivo; conditions: out to 8 h post 30 mg/kg dose, single oral dose
Experimental: Analysis of cFOS mRNA Production in a c-FMS Mouse Spleen Pharmacodynamic Model
To examine the in vivo modulation of FMS activity by compounds of formula I, spleen samples from female DBA/1 mice were collected and analyzed for M-CSF stimulated production of cFOS mRNA. Briefly, six to seven week old female Taconic DBA/1BO J Bom Tac mice were treated with a single oral dose (by gavage) of either vehicle or compound. Plasma and spleen samples were collected from four mice at each timepoint 2, 4, 6, 8, 12, 18, and 24 hours after dosing. Fifteen minutes prior to euthanasia, all mice were injected IV with 1 μg (100 μL fixed volume) of M-CSF. M-CSF, Recombinant Mouse Macrophage Colony Stimulating Factor (36.4 kDa homodimer, ≧98% purity) was obtained from Gibco. All procedures carried out in this experiment were conducted in compliance with all the laws, regulations and guidelines of the National Institutes of Health (NIH). cFOS mRNA levels in spleen extracts were determined using a quantitative reverse transcriptase PCR kit from Life Technologies. Plasma levels of FMS inhibitors were determined by mass spectrometer analysis. The degree of FMS inhibition was correlative to the amount of decrease observed in cFOS mRNA levels in the spleen samples of treated animals compared to vehicle.

[3] = system: M-NFS-60 cells; assay: M-NFS-60 cell proliferation assay (resazurin); type: cell-based; conditions: 67 h incubation
How it was run: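 Cells kept in medium containing 20 ng/mL mouse recombinant M-CSF. Fluorescence was read at ex 540/em 600 nm, and IC50 was fitted from percent inhibition across a range of inhibitor concentrations.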

[4] = target: cMET kinase (Homo sapiens (Human), UniProt P08581); assay: cMET kinase inhibition (Table 4); type: biochemical
[5] = target: KDR kinase (Homo sapiens (Human), UniProt P35968); assay: KDR kinase inhibition (Table 4); type: biochemical
[6] = system: PC-3 M-luc cells; assay: PC-3 peritibial implant model of cancer bone metastasis; type: in vivo, mouse; conditions: oral dose of 30 mg/kg twice daily; lesion score of 4 in vehicle-treated animals; scale 0-4
Description: PC-3 Peritibial Implant Model of Cancer Bone Metastasis
To evaluate in vivo anti-cancer activity of compounds of formula I, the PC-3 M-luc peritibial injection model of bone invasiveness model was employed. Briefly, PC-3 M-luc cells were obtained from Xenogen Corporation (Caliper Life Sciences) and expanded using MEM media modified with L-Glutamine (Cell Gro® #10-045-CV) supplemented with 10% fetal bovine serum, 1% penicillin-streptomycin-glutamine, 1% non-essential amino acids, and 1% MEM vitamins in 5% CO2 atmosphere at 37° C. Six to 7 week old male nude mice (Crl:NU-Foxn1nu) were obtained from Charles River Laboratories. Test mice were implanted peritibially on Day 0 with 1×10^6 cells/mouse (0.1 ml) using an insulin syringe with a fixed 28-gauge needle. The needle was inserted at the ankle between the tibia and fibula until the bevel of the needle reached approximately half way between the knee and ankle. Treatments began on Day 0. Animals were dosed by oral gavage twice daily for the study duration. […]
Isosurface volume renderings were used to delineate lesions in the hind limbs. […] Lesions in the right hind limb were scored with values of 0, 1, 2, 3, or 4 based on a qualitative assessment of lesion size as defined by: • 0: Normal Bone • 1: Minimal lesions. […]

KDR kinase, sequence (P35968 20-1356): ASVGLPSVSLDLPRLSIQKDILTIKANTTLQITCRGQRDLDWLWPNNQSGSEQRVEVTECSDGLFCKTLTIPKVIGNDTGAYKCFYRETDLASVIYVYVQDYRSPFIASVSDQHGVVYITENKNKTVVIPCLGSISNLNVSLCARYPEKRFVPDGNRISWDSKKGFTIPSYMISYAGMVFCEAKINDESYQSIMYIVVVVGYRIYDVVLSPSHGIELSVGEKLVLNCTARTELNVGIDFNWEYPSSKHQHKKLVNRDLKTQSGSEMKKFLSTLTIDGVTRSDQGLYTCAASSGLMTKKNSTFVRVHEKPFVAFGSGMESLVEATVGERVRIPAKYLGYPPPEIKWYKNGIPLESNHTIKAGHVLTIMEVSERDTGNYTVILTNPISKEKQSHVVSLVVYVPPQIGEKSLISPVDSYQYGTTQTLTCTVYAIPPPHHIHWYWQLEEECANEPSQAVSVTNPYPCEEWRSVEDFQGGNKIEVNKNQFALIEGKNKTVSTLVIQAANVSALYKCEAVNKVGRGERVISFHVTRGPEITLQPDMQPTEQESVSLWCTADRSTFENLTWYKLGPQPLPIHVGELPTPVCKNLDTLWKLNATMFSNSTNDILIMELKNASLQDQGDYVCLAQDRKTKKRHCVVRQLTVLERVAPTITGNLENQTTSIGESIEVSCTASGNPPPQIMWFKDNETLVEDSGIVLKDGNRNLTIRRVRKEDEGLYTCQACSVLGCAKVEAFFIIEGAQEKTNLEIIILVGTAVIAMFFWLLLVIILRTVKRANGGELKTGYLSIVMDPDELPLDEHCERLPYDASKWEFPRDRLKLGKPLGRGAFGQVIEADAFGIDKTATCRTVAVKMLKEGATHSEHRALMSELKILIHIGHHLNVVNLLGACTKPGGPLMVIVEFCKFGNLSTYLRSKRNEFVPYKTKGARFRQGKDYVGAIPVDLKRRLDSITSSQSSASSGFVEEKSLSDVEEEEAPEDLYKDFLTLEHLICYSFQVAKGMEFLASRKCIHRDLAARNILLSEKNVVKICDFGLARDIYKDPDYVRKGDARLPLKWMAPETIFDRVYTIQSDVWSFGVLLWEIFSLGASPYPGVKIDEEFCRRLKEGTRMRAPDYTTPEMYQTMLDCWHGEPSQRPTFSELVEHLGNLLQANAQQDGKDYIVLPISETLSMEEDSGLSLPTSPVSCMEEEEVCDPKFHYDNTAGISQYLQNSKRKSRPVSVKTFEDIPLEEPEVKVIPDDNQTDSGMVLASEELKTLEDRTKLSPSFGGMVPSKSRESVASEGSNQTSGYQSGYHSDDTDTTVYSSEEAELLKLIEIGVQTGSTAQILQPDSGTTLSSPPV
cMET kinase, sequence (P08581 25-1390): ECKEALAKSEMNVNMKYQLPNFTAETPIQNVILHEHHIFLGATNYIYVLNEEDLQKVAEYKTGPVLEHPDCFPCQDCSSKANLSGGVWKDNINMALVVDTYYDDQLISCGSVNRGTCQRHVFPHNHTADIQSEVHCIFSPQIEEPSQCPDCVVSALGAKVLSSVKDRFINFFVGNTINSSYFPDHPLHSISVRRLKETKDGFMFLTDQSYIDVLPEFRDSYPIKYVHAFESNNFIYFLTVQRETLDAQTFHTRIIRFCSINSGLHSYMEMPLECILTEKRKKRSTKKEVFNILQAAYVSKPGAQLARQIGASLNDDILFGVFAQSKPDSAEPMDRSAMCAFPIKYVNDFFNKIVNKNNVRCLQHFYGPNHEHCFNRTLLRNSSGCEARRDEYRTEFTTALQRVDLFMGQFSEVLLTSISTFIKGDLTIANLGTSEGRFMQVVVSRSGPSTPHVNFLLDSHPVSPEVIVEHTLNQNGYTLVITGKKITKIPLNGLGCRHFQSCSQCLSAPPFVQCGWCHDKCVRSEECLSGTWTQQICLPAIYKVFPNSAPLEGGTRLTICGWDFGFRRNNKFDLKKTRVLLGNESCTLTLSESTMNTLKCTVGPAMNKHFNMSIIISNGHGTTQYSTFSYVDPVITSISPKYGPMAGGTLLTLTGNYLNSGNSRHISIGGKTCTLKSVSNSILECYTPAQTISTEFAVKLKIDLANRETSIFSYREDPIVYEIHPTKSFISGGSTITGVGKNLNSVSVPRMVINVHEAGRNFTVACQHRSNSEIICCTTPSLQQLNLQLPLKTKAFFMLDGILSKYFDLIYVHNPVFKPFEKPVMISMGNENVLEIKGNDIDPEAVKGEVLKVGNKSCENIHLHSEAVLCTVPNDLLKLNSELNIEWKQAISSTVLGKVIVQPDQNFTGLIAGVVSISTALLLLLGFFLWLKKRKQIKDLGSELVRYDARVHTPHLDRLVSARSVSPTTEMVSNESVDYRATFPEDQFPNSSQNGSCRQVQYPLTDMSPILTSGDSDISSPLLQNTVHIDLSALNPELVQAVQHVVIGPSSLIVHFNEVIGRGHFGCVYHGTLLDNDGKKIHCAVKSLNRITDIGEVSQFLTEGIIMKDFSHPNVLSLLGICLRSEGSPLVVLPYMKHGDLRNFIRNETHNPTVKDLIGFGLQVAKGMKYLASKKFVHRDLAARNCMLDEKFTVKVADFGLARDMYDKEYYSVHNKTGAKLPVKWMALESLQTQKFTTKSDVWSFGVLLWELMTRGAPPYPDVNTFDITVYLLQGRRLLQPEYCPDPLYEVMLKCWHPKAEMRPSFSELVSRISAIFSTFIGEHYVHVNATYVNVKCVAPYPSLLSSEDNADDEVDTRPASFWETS
unphosphorylated c-KIT kinase (uKIT, Seq. ID no. 2), sequence (P10721 other isoform, or with tags, fused parts or gaps): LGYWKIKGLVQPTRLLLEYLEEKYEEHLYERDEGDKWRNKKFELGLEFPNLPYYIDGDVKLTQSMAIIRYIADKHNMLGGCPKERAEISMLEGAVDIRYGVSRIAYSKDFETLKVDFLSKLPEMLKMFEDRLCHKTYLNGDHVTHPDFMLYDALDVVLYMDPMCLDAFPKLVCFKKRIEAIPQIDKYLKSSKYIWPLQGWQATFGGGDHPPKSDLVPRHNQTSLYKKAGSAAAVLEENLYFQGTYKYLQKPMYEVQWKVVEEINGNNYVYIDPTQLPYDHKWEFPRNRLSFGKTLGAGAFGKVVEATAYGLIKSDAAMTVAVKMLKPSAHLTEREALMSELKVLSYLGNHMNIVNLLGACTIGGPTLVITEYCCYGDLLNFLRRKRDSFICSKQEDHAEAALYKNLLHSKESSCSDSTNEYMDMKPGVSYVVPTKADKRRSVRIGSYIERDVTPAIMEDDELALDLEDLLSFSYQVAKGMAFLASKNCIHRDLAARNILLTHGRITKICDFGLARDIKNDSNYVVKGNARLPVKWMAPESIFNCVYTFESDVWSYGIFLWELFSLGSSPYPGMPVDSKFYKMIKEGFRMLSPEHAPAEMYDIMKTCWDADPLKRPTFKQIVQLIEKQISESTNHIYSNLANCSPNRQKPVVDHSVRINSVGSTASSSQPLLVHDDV

Compound	IC50 [1] [nM]	inhibition of cFOS mRNA levels [2] [%]	IC50 [3] [nM]	IC50 [4] [nM]	IC50 [5] [nM]	lesion score [6]
CCN1CCN(C(=O)Nc2ccc(Oc3ccnc(-c4ccnc(C)c4)c3)c(C)n2)C1=O [Example 118, 3-ethyl-N-(6-methyl-5-((2′-methyl-[2,4′-bipyridin]-4-yl)oxy)pyridin-2-yl)-2-oxoimidazolidine-1-carboxamide]	> 1000	≥ 70	10 to 100	–	–	–
Cc1nc(NC(=O)N2CCN(C3CCCC3)C2=O)ccc1Oc1ccnc(-c2cnn(C)c2)c1 [Example 29, 3-cyclopentyl-N-(6-methyl-5-((2-(1-methyl-1H-pyrazol-4-yl)pyridin-4-yl)oxy)pyridin-2-yl)-2-oxoimidazolidine-1-carboxamide]	< 10	–	< 10	898	> 3300	–
COCCN1CCN(C(=O)Nc2ccc(Oc3ccnc(-c4cnn(C)c4)c3)c(C)n2)C1=O [Example 18, 3-(2-methoxyethyl)-N-(6-methyl-5-((2-(1-methyl-1H-pyrazol-4-yl)pyridin-4-yl)oxy)pyridin-2-yl)-2-oxoimidazolidine-1-carboxamide]	100 to 1000	≥ 70	100 to 1000	> 5000	> 3300	–
CCN1CCN(C(=O)Nc2ccc(Oc3ccnc(-c4cnn(C)c4)c3)c(C)n2)C1=O [Example 42, 3-ethyl-N-(6-methyl-5-((2-(1-methyl-1H-pyrazol-4-yl)pyridin-4-yl)oxy)pyridin-2-yl)-2-oxoimidazolidine-1-carboxamide]	100 to 1000	≥ 70	10 to 100	> 5000	> 10000	2
Cn1cc(-c2cc(Oc3ccc(NC(=O)N4CCN(C5CCOCC5)C4=O)nc3)ccn2)cn1 [Example 1, N-(5-((2-(1-methyl-1H-pyrazol-4-yl)pyridin-4-yl)oxy)pyridin-2-yl)-2-oxo-3-(tetrahydro-2H-pyran-4-yl)imidazolidine-1-carboxamide]	10 to 100	–	10 to 100	> 5000	> 3300	–
CCn1cc(-c2cc(Oc3ccc(NC(=O)N4CCN(C5CCOCC5)C4=O)nc3)ccn2)cn1 [Example 4, N-(5-((2-(1-ethyl-1H-pyrazol-4-yl)pyridin-4-yl)oxy)pyridin-2-yl)-2-oxo-3-(tetrahydro-2H-pyran-4-yl)imidazolidine-1-carboxamide]	10 to 100	–	10 to 100	–	–	–
Cn1cc(-c2cc(Oc3ccc(NC(=O)N4CCN(C(C)(C)C)C4=O)nc3)ccn2)cn1 [Example 34, 3-(tert-butyl)-N-(5-((2-(1-methyl-1H-pyrazol-4-yl)pyridin-4-yl)oxy)pyridin-2-yl)-2-oxoimidazolidine-1-carboxamide]	< 10	–	10 to 100	–	–	–
Cc1nc(NC(=O)N2CCN(C)C2=O)ccc1Oc1ccnc(-c2cnn(C)c2)c1 [Example 41, 3-methyl-N-(6-methyl-5-((2-(1-methyl-1H-pyrazol-4-yl)pyridin-4-yl)oxy)pyridin-2-yl)-2-oxoimidazolidine-1-carboxamide]	> 1000	≥ 70	100 to 1000	–	–	–
Cc1nc(NC(=O)N2CCN(C(C)C)C2=O)ccc1Oc1ccnc(-c2cnn(C)c2)c1 [Example 35, 3-isopropyl-N-(6-methyl-5-((2-(1-methyl-1H-pyrazol-4-yl)pyridin-4-yl)oxy)pyridin-2-yl)-2-oxoimidazolidine-1-carboxamide]	100 to 1000	–	10 to 100	–	–	–
